These results are taken from article PMC8269107, “Lipidation of Temporin-1CEb Derivatives as a Tool for Activity Improvement, Pros and Cons of the Approach” (International Journal of Molecular Sciences, 2021).

The test system of series [1] is E. coli PCM 2057. The series can be described thus: MIC, broth microdilution. It is filed as cell-based, Escherichia coli. The following applies: E. coli PCM 2057, 24 h. An excerpt: (§1) Escherichia coli (PCM 2057 = ATCC 25922), Staphylococcus aureus (PCM 2054 = ATCC 25923), Staphylococcus epidermidis (PCM 2118 = ATCC 14990), Bacillus subtilis (PCM 2224 = ATCC 9799), Bacillus cereus (PCM 482 = ATCC 10702) and Pseudomonas aeruginosa (PCM 499 = ATCC 10145) were obtained from the Polish Collection of Microorganisms. Fungi strains Candida albicans (CCM 8186 = CNTC 49/64), Candida glabrata (CCM 8270 = ATCC 90030), Candida parapsilosis (CCM 8260 = ATCC 22019) and Candida krusei (CCM 8271 = ATCC 6258) were acquired from the Czech Collection of Microorganisms. S. aureus USA300 (wild type strain), the reference strain of Klebsiella pneumoniae (ATCC 13883) and clinical isolates of Pseudomonas aeruginosa (PA1, PA2) collected from nonrelated patients admitted to the Stefan Zeromski Specialist Municipal Hospital in Krakow (Poland) were kindly provided by the research group of the Department of Microbiology, Faculty of Biochemistry, Biophysics and Biotechnology, Jagiellonian University, Krakow, Poland.
(§2) Luria-Bertani broth (LB) and Sabouraud Dextrose broth (SB) (Biocorp, Poland) were used for cultivation of bacteria and fungi strains, respectively. The antimicrobial activity of the peptides were analyzed through determination of MIC (minimal inhibitory concentration) parameters according to Clinical and Laboratory Standards (CLSI) guidelines developed for aerobic bacteria and yeasts, respectively. Mueller-Hinton broth (MHB) was used as the working medium for all bacterial strains, while in the case of fungi, RPMI-1640 (with L-glutamine, without sodium bicarbonate) growth medium buffered with MOPS (morpholinepropanesulfonic acid) and supplemented with 2% glucose was used. Inoculum was prepared from freshly grown cultures of microorganisms at their exponential phase of growth. […] Plates were then incubated for 24 h at 37 °C in the case of bacteria and at 35 °C in the case of fungi. After that time, absorbance was read at 590 nm with a Perkin Elmer plate reader. Cultures without peptide were treated as positive control, while uninoculated media were defined as negative control. All measurements were run at least in triplicate.
A general note: In broth dilution the organism is exposed to a series of concentrations in liquid medium.

Series [2] deals with B. cereus PCM 482. The series can be described thus: MIC, broth microdilution. It is filed as cell-based, Bacillus cereus. As to conditions: B. cereus PCM 482, 24 h.
Source text: as §1, §2

Series [3] has as its system C.albicans CCM 8186. The series can be described thus: MIC, broth microdilution. It is filed as cell-based, Candida albicans. As to conditions: for MIC100: C.albicans CCM 8186, 24 h.
Source text: as §1, §2

In series [4] the test system is S. aureus (PCM 2054) biofilm. Put plainly: Biofilm eradication assay, pre-formed 24 h old biofilm (MTT). It is filed as cell-based, Staphylococcus aureus. The following applies: S. aureus pre-formed 24 h old biofilm, 24 h treatment. The procedure:
Biofilm eradication activity of the synthesized compounds was analyzed against 24 h old biofilms of S. aureus and C. albicans. In the case of bacteria, an overnight culture of S. aureus in Tryptic Soy Broth (TSB) supplemented with 2% glucose (TSB/+G) was used to prepare inoculum for the experiments. Briefly, 5 mL of 24 h culture was centrifuged at 5000× g, washed with sterile PBS and suspended in a fresh TSB/+G. The bacterial suspension was then diluted in a fresh growth medium to obtain the final concentration of colonies of about 1 × 10^7 cells per ml. Further, 200 μL of the inoculum was transferred to each well of 96-well sterile polystyrene flat-bottomed plate, and bacteria were then incubated for the next 24 h without shaking at 37 °C.
After that, each well of the plates containing bacterial or fungi biofilm was washed three times with PBS in order to remove all non-adherent cells. Then, peptide solutions of 200 µL ranging from 50 to 0,39 µg/mL prepared in TSB +/G in the case of experiments on S. aureus biofilm, and (RPMI-1640/+G) in the case of C. alibcans, were prepared and transferred into the microtiter plates. After the addition of the peptides, the experiments were continued for the next 24 h.
The reduction in biofilm viability was analyzed by means of MTT assay. Briefly, 20 μL of MTT solution (5 mg/mL in PBS) was added to prewashed wells with exchanged medium (180 μL of fresh medium) wells containing bacterial/yeast biofilms. Plates were then incubated in the dark for the next 3 h at 37 °C. After that time, the medium was replaced with 6 mM HCl in isopropanol and, when the reduced MTT was fully dissolved, the plates were read at 570 nm. Activity against fully developed 24 h old biofilm was described as biofilm eradication concentration (BEC50 expressed in µg/mL), which corresponded to the concentration of the compound able to reduce 50% of biofilm viability compared with the growth control.

Series [5] has as its system C.krusei CCM 8271. The series can be described thus: MIC, broth microdilution. It is filed as cell-based, Candida krusei. The following applies: C.krusei CCM 8271, 24 h.
Source text: as §1, §2

In series [6] the test system is S. epidermidis PCM 2118. Put plainly: MIC, broth microdilution. It is filed as cell-based, Staphylococcus epidermidis. As to conditions: S. epidermidis PCM 2118, 24 h.
Source text: as §1, §2

Series [7] has as its system primary fibroblasts. Put plainly: Cytotoxicity, MTT assay. It is filed as cell-based, human. As to conditions: 24 h. The procedure: (§3) Human dermal fibroblasts were obtained as previously reported from biopsies of healthy human skin of three donors undergoing a surgery. All procedures were approved by the Ethics Committee of Medicinal University of Gdansk (NKEBN/483/2011 and NKBBN/745/2019-2020). Immortalized human HaCaT keratinocytes (DKFZ Heidelberg, Germany) were obtained commercially.
(§4) Both types of cell lines were grown in Dulbecco′s Modified Eagle′s Medium (DMEM) (Sigma-Aldrich, Germany), containing […] of glucose, […] of L- glutamine, sodium pyruvate and sodium bicarbonate. Additionally, the medium was supplemented with 10% FCS (fetal calf serum, Sigma-Aldrich, Germany), 100 U/mL of penicillin and 100 μg/mL of streptomycin (Sigma-Aldrich, Germany). The cells were grown in standard culture dishes (BD, USA) in a humidified atmosphere with 5% CO2 at […], and the medium was changed every 2 days.
(§5) The fibroblasts and keratinocytes were seeded at density of 5500 cells per well into 96-well plates suspended in a medium supplemented with 10% FCS. After 24 h from seeding, the media were exchanged with serum- and antibiotic-free DMEM and tested peptides, dissolved in sterile water, which were added, yielding a final concentration ranging from 1 to 50 μg/mL. The cells were then incubated for the next 24 h. At the end of the experiment, the cells were treated with 20 μL of MTT (5 mg/mL in PBS). After 3 h of incubation in the presence of MTT dye, the DMEM medium was discarded and replaced with 6 mM HCl in isopropanol. When the purple crystals of formazan were fully solubilized, absorbance at 570 nm was read.
(Tetrazolium dyes change colour on reduction, which living cells bring about.)

Series [8] deals with keratinocytes (HaCaT). The series can be described thus: Cytotoxicity, MTT assay. It is filed as cell-based, human. As to conditions: 24 h. The procedure:
as §3, §4, §5

Series [9] relates to C.glabrata CCM 8270. Put plainly: MIC, broth microdilution. It is filed as cell-based, Candida glabrata. The following applies: for MIC100: C.glabrata CCM 8270, 24 h.
Source text: as §1, §2

Series [10] has as its system B. subtilis PCM 2224. The series can be described thus: MIC, broth microdilution. It is filed as cell-based, Bacillus subtilis. The following applies: B. subtilis PCM 2224, 24 h.
Source text: as §1, §2

≈ marks a conversion by molar mass, not a printed value. Where a SMILES comes first, the peptide text is derived from it. [ ]: non-standard residue; d: D form. The star is where a group is joined. Palmitoyl = CCCCCCCCCCCCCCCC(=O)*; Lauroyl = CCCCCCCCCCCC(=O)*; Pentanoyl = CCCCC(=O)*; AEEA = NCCOCCOCC(=O)O; βAla = NCCC(=O)O

For the compound `CC[C@H](C)[C@H](NC(=O)COCCOCCNC(=O)[C@H](Cc1c[nH]cn1)NC(=O)CCN)C(=O)N[C@@H](CCCCN)C(=O)N[C@@H](CCCCN)C(=O)N[C@H](C(=O)N[C@@H](CC(C)C)C(=O)N[C@@H](CO)C(=O)N[C@@H](CCCCN)C(=O)N[C@H](C(=O)N[C@@H](CCCCN)C(=O)N[C@@H](CCCCN)C(=O)N[C@@H](CC(C)C)C(=O)N[C@@H](CC(C)C)C(N)=O)[C@@H](C)CC)[C@@H](C)CC` [CAR-PEG-DK5] (H-[βAla]H[AEEA]IKKILSKIKKLL-NH2; N-terminus and C-terminus assumed), the MIC100 was over 50 µg/mL in [1]; over 50 µg/mL in [2]; 15.6 µg/mL (≈ 8.78 µM) in series [3]; 3.9 µg/mL (≈ 2.19 µM) in series [5]; 3.9 µg/mL (≈ 2.19 µM) in [6]; 62.5 µg/mL (≈ 35.2 µM) in series [9]. Besides, the MIC100 in series [10] is given as 3.9 µg/mL (≈ 2.19 µM). Further, in series [4], the BEC50 was over 50 µg/mL. Besides, the IC50 was 35 µg/mL (≈ 19.7 µM) in series [7] and over 50 µg/mL in series [8].

As to `CCCCC(=O)N[C@H](C(=O)N[C@@H](CCCCN)C(=O)N[C@@H](CCCCN)C(=O)N[C@H](C(=O)N[C@@H](CC(C)C)C(=O)N[C@@H](CO)C(=O)N[C@@H](CCCCN)C(=O)N[C@H](C(=O)N[C@@H](CCCCN)C(=O)N[C@@H](CCCCN)C(=O)N[C@@H](CC(C)C)C(=O)N[C@@H](CC(C)C)C(N)=O)[C@@H](C)CC)[C@@H](C)CC)[C@@H](C)CC` [Compound C5-DK5] (Pentanoyl-IKKILSKIKKLL-NH2), the MIC100 in series [1] is given as 3.13 µg/mL (≈ 2.08 µM); in [2] it was 12.5 µg/mL (≈ 8.29 µM); in [3] it was 6.25 µg/mL (≈ 4.14 µM); in [5], 25 µg/mL (≈ 16.6 µM); in series [6] it was 0.78 µg/mL (≈ 0.517 µM); in series [9], 6.25 µg/mL (≈ 4.14 µM). Besides, the MIC100 in [10] is recorded as 0.78 µg/mL (≈ 0.517 µM). The BEC50 in series [4] is over 50 µg/mL. The “effect on cell viability (in words)” value in series [7] (fibroblasts, MTT, 1 to 50 µg/mL) is reported as “moderately toxic”; in [8] (keratinocytes, MTT, 1 to 50 µg/mL) it was “moderately toxic”. Besides, the IC50 in series [7] (primary Fibroblasts, MTT) stood at 20 µg/mL (≈ 13.3 µM); in series [8] (Keratinocytes (HaCaT), MTT) it was 35 µg/mL (≈ 23.2 µM).

For the compound `CCCCCCCCCCCC(=O)N[C@H](C(=O)N[C@@H](CCCCN)C(=O)N[C@@H](CCCCN)C(=O)N[C@H](C(=O)N[C@@H](CC(C)C)C(=O)N[C@@H](CO)C(=O)N[C@@H](CCCCN)C(=O)N[C@H](C(=O)N[C@@H](CCCCN)C(=O)N[C@@H](CCCCN)C(=O)N[C@@H](CC(C)C)C(=O)N[C@@H](CC(C)C)C(N)=O)[C@@H](C)CC)[C@@H](C)CC)[C@@H](C)CC` [Compound C12-DK5] (Lauroyl-IKKILSKIKKLL-NH2), the MIC100 is reported as 12.5 µg/mL (≈ 7.78 µM) in [1]; 12.5 µg/mL (≈ 7.78 µM) in [2]; 3.13 µg/mL (≈ 1.95 µM) in [3]; 3.13 µg/mL (≈ 1.95 µM) in series [5]; 0.78 µg/mL (≈ 0.486 µM) in series [6]; 3.13 µg/mL (≈ 1.95 µM) in series [9]. The same compound displayed an MIC100 in series [10] of 0.78 µg/mL (≈ 0.486 µM). For the same compound, the “fold improved activity in comparison to the parent DK5” value in series [3] (C. albicans, MIC) was “about 10 fold”; in series [9] (C. glabrata, MIC) it was about 20 fold. Besides, the BEC50 in series [4] amounted to 6.25 µg/mL. Further, the IC50 amounted to 7 µg/mL (≈ 4.36 µM) in [7] (primary Fibroblasts, MTT) and 1 µg/mL (≈ 0.623 µM) in series [8] (Keratinocytes (HaCaT), MTT).

Regarding `CCCCCCCCCCCCCCCC(=O)N[C@H](C(=O)N[C@@H](CCCCN)C(=O)N[C@@H](CCCCN)C(=O)N[C@H](C(=O)N[C@@H](CC(C)C)C(=O)N[C@@H](CO)C(=O)N[C@@H](CCCCN)C(=O)N[C@H](C(=O)N[C@@H](CCCCN)C(=O)N[C@@H](CCCCN)C(=O)N[C@@H](CC(C)C)C(=O)N[C@@H](CC(C)C)C(N)=O)[C@@H](C)CC)[C@@H](C)CC)[C@@H](C)CC` [Compound C16-DK5] (Palmitoyl-IKKILSKIKKLL-NH2), the MIC100 in [1] was over 50 µg/mL; in series [2] it was over 50 µg/mL; in series [3], over 50 µg/mL; in series [5], 6.25 µg/mL (≈ 3.76 µM); in series [6] it was 25 µg/mL (≈ 15 µM); in [9], over 50 µg/mL. The compound further showed an MIC100 in series [10] of 3.13 µg/mL (≈ 1.88 µM). The BEC50 in series [4] came out at 6.25 µg/mL. For the same compound, the IC50 is 7 µg/mL (≈ 4.21 µM) in series [7] (primary Fibroblasts, MTT) and 5 µg/mL (≈ 3.01 µM) in [8] (Keratinocytes (HaCaT), MTT).

What is called IC50 is the point on the concentration scale where inhibition reaches its midpoint. Low values mean greater potency, high ones weaker potency.
